Experimental data as given in patent US9725460B2, “Oridonin analogs, compositions, and methods related thereto” (THE BOARD OF REGENTS OF THE UNIVERSITY OF TEXAS SYSTEM, priority 2013, dated 2017).
Where two headings read alike, the source gives them in different places.

Tests used:
MCF-7 = assay: MTT cancer cell proliferation assay, MCF-7; type: cell-based, human; settings: Homo sapiens
Summary of the method: (§1)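 Cells seeded at 1×10^4/well and exposed 48 h to 0.01-100 μM compound (0.01, 0.1, 1, 5, 10, 100 μM) or DMSO. MTT added for a further 4 h, formazan dissolved in DMSO and OD read at 550 nm; quadruplicate wells per concentration. MCF-7 is ER-positive; MDA-MB-231 ER-negative, triple-negative.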

MDA-MB-231 = assay: MTT cancer cell proliferation assay, MDA-MB-231; type: cell-based, human; settings: Homo sapiens
Summary of the method: as §1

AsPC1 = assay: Cancer cell proliferation assay, AsPC1; type: cell-based; settings: Homo sapiens, ASPC1; Table 2a; A-ring modified analogues; read-out: IC50 (μM) AsPC1
Experimental: (§2) In Vitro Determination of Effects of Synthesized Diterpenoids on Cancer Cell Proliferation. […] Then MTT solution was removed, and 150 μL of DMSO was added to each well. Absorbance of all wells was determined by measuring OD at 550 nm after a 10 min incubation on a 96-well GlowMaxate absorbance reader (Promega, Madison, Wis.). Each individual compound was tested in quadruplicate wells for each concentration.

Panc-1 = assay: Cancer cell proliferation assay, Panc-1; type: cell-based; settings: Homo sapiens, PANC-1; Table 2a; A-ring modified analogues; read-out: IC50 (μM) Panc-1
Experimental: as §2

MCF-7/ADR = assay: MTT growth inhibition, drug-resistant MCF-7/ADR; type: cell-based; settings: Homo sapiens, NCI/ADR-RES, 24 h, Table 1d; drug-resistant breast cancer cells; mean ± SE of three experiments
[1] = tested on: breast, pancreatic, and prostate cancer cell lines; assay: Anti-proliferation effects against cancer cell lines; type: cell-based, human; settings: summary of Tables 1 and 2
Experimental: In Vitro Determination of Effects of Synthesized Diterpenoids on Cancer Cell Proliferation. Breast cancer cell lines MCF-7, MDA-MB-231, […] and MCF/ADR were seeded in 96-well plates at a density of 1×10^4 cells/well and treated with DMSO and 0.01, 0.1, 1, 5, 10, and 100 μM of individual compound for 48 h, and then 20 μL of 3-(4,5-dimethylthiazol-2-yl)-2,5-diphenyltetrazolium bromide (MTT) (5 mg/mL in PBS) was added to each well and further incubated for another 4 h. Then MTT solution was removed, and 150 μL of DMSO was added to each well. Absorbance of all wells was determined by measuring OD at 550 nm after a 10 min incubation on a 96-well GlowMaxate absorbance reader (Promega, Madison, Wis.). Each individual compound was tested in quadruplicate wells for each concentration.

[2] = MCF7, Table 1c, dienone analogues, mean ± SE of three experiments, read-out: Antiproliferative effect MCF-7 (IC50)
[3] = MCF7, Table 2a, A-ring modified analogues, read-out: IC50 (μM) MCF-7
[4] = MDA-MB-231, Table 1c, dienone analogues, mean ± SE of three experiments, read-out: Antiproliferative effect MDA-MB-231 (IC50)
[5] = MDA-MB-231, Table 2a, A-ring modified analogues, read-out: IC50 (μM) MDA-MB-231

Question: What does the source list for `C=C1C(=O)[C@@]23[C@@H]4OC(C)(C)OC25OC[C@]2(C(=O)C=CC(C)(C)[C@H]2[C@@H]5O)[C@@H]3CC[C@@H]14` [CYD-6-25, (3S,3aR,3a^1R,6aR,7S,7aR,11aS,11bS)-7-hydroxy-5,5,8,8-tetramethyl-15-methylene-3,3a,7,7a,8,11b-hexahydro-1H-6a,11a-(epoxymethano)-3,3a^1-ethanophenanthro[1,10-de][1,3]dioxine-11,14(2H)-dione]?
Answer: IC50 (MCF-7; [2]): 0.56 ± 0.31 µM; IC50 (MCF-7; [3]): 1.1 µM; IC50 (MDA-MB-231; [4]): 3.49 ± 1.21 µM; IC50 (MDA-MB-231; [5]): 5.6 µM; IC50 (AsPC1): 8.82 µM; IC50 (Panc-1): 7.93 µM; IC50 (MCF-7/ADR): 5.03 ± 1.91 µM

Question: With `C=C1C(=O)[C@]23[C@H](O)[C@H]1CC[C@H]2[C@@]12CO[C@]3(O)[C@@H](O)[C@@H]1C(C)(C)C=CC2=O` [CYD-6-58, (4aR,5S,6S,6aR,9S,11aS,11bS,14R)-5,6,14-trihydroxy-4,4-dimethyl-8-methylene-4,4a,5,6,9,10,11,11a-octahydro-1H-6,11b-(epoxymethano)-6a,9-methanocyclohepta[a]naphthalene-1,7(8H)-dione] as the compound, how does the IC50 (MCF-7; [2]) read?
Answer: 1.31 ± 0.25 µM

Question: What about the IC50 (MCF-7; [3]) of the same compound?
Answer: 0.95 µM

Question: What about the IC50 (MDA-MB-231; [4]) of the same compound?
Answer: 2.23 ± 0.68 µM

Question: What about the IC50 (MDA-MB-231; [5]) of the same compound?
Answer: 3.56 µM

Question: And the IC50 (AsPC1)?
Answer: 2.99 µM

Question: What about the IC50 (Panc-1) of the same compound?
Answer: > 10 µM

Question: And the IC50 (MCF-7/ADR)?
Answer: 5.82 ± 2.12 µM

Question: Which IC50 (MCF-7; [2]) does the source give for `C=C1C(=O)[C@@]23[C@@H]4OC(C)(C)OC25OC[C@]2(C(=O)C(C=O)=CC(C)(C)[C@H]2[C@@H]5O)[C@@H]3CC[C@@H]14` [CYD-6-92, (3S,3aR,3a^1R,6aR,7S,7aR,11aS,11bS)-7-hydroxy-5,5,8,8-tetramethyl-15-methylene-11,14-dioxo-2,3,3a,7,7a,8,11,11b-octahydro-1H-6a,11a-(epoxymethano)-3,3a^1-ethanophenanthro[1,10-de][1,3]dioxine-10-carbaldehyde] here?
Answer: 1.28 ± 0.47 µM

Question: What about the IC50 (MCF-7; [3]) of the same compound?
Answer: 1.46 µM

Question: And the IC50 (MDA-MB-231; [4])?
Answer: 3.46 ± 1.33 µM

Question: And the IC50 (MDA-MB-231; [5])?
Answer: 6.09 µM

Question: What about the IC50 (AsPC1) of the same compound?
Answer: 3.57 µM

Question: What about the IC50 (Panc-1) of the same compound?
Answer: 5.35 µM

Question: And the “IC50 values, anti-proliferation effects against cancer cell lines” value [1]?
Answer: low micromolar to nanomolar

Question: What about the IC50 (MCF-7/ADR) of the same compound?
Answer: 6.55 ± 0.96 µM
